In the NIST ThermoML archive (doi:10.1016/j.jct.2010.02.009):

Experiment: heat capacity at constant pressure per volume; xn = mol fraction of the nth substance listed
Details: 101 kPa, Liquid, Large sample (1 g) DSC, x1 = 0.497

N#Cc1ccccc1 [benzonitrile] + CCCCCCCCC
Details	heat capacity [J/K/m3]
284.31 K	1776700
284.33 K	1765400
284.36 K	1750800
284.42 K	1731200
284.5 K	1715800
284.61 K	1703600
284.69 K	1698600
284.79 K	1693000
284.9 K	1688700
284.97 K	1686600
285.12 K	1680400
285.21 K	1677900
285.31 K	1676100
285.43 K	1674300
285.55 K	1671100
285.68 K	1668100
285.83 K	1666100
286 K	1665000
286.18 K	1662900
286.38 K	1659800
286.6 K	1659100
286.85 K	1655600
287.12 K	1655500
287.42 K	1652700
287.75 K	1650500
288.12 K	1649500
288.53 K	1647700
288.97 K	1645800
289.51 K	1644500
290.01 K	1643400
290.61 K	1641800
291.29 K	1641000
292.03 K	1639400
292.42 K	1639400
292.84 K	1638700
293.28 K	1638100
293.74 K	1637800
294.24 K	1637400
294.74 K	1636900
295.28 K	1636500
295.85 K	1636400
296.45 K	1635800
297.07 K	1635800
297.73 K	1635500
298.41 K	1635100
299.14 K	1635100
299.89 K	1634900
300.7 K	1634900
301.55 K	1634800
302.43 K	1635000
303.36 K	1635100
304.34 K	1635200
305.38 K	1635400
306.45 K	1635600
307.59 K	1635800
308.79 K	1636100
310.05 K	1636600
311.36 K	1637200
312.75 K	1637800
314.12 K	1638500
